According to US12570684B2 (UNIVERSITY OF TENNESSEE RESEARCH FOUNDATION, priority 2020, dated 2026):
“Also recorded” adds a separate entry of the source.

What was measured:
cell lines in Table 2 = experiment: MTT assays, summary over the cell lines in Table 2; assay type: cell-based
Experimental: Cell lines. The human primary PDAC cell lines PANC-1 (ATCC CRL 1469); Capan-2 (ATCC HTB-80) and metastatic PDAC cell lines Capan-1 (ATCC HTB-79), AsPC-1 (ATCC CRL-1682), L1210 (ATCC CCL-219), KB (ATCC CCL-17), HeLa, SiHa (ATCC HTB-35), HCT-116 (ATCC CCL-247), DLD-1 (ATCC CCL221), hTERT-HPNE (ATCC CRL-4023), Vero (ATCC CCL-81) were purchased from the ATCC. The cell lines were cultured and maintained in the media as recommended by the supplier. The cell lines were regularly tested for mycoplasma contamination and authenticated. In addition to ATCC cell lines, Dr. Glazer's lab generated patient-derived PDAC cell line, PD002. PD002 Cells were maintained and cultured in DMEM medium supplemented with 20% FBS and 100 IU/mL penicillin and incubated at 37° C. with 5% CO2.
MTT cytotoxicity assay. To study the effect of treatment with DPAGT1 inhibitors on the growth and proliferation of cells, a fixed number of cells (5×10^4 cells/well, 196 μL) were plated in a 96 well plate. Into each well 5 μL of drug concentration was added. After 72 h of incubation with drugs at 37° C., 5% CO2, 10 μL of MTT solution (5 mg/mL in PBS) was added and incubated another 3 h at 37° C., 5% CO2. The medium was removed, and DMSO (200 μL/well) was added. Viability was assessed on the basis of cellular conversion of MTT into a purple formazan product. The absorbance of the colored formazan product was measured at 570 nm by BioTek Synergy HT Spectrophotometer.

PD002 [1] = experiment: Cell migration assay using Transwell (Boyden) chamber; assay type: cell-based; conditions: 0.1 μM, 18 h; compared to tunicamycin and gemcitabine at 0.1 μM
Experimental: Cell migration assays using Transwell chamber. Cell migration assay was performed using Boyden chamber (thermo fisher). PD002 cells (˜10^4 cells/mL) were seeded in 96-wells plate (Corning, HTS Transwell-96 Well Permeable Supports, pore size: 8 μm) in FBS free media and the lower chambers were filled with 10% FBS medium. CPPB, tunicamycin, or gemcitabine (0.1 μM) was added to the upper chamber. The cells were incubated for 18 h at 37° C. under 5% CO2. The cells were fixed using 4% paraformaldehyde for 0.5 h and stained with 0.05% crystal violet (300 μL/well), after 0.5 h, images were captured via 10× magnification microscopy.

Snail [2] = experiment: Western blot of Snail in cervical cancer; assay type: cell-based; conditions: effective at 0.2 μM
DPAGT1 (Human) = biological target: T1, DPAGT1 (Human) (Homo sapiens, UniProt Q9H3H5); experiment: DPAGT1 assay; assay type: biochemical
T1 construct: made in house; host or cells: Expi293 cells (suspension)
T1 sequence (Q9H3H5 1-408): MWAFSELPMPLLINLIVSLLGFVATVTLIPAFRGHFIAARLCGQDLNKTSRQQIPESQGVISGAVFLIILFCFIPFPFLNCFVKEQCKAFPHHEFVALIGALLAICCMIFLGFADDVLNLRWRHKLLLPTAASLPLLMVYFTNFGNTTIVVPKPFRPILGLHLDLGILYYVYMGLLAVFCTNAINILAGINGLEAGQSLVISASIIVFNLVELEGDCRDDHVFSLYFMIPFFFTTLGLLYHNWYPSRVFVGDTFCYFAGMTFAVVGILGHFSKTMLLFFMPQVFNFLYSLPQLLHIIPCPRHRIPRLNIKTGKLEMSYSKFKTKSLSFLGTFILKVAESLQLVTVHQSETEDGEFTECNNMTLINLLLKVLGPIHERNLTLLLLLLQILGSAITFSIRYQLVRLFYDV
Experimental: DPAGT1 expression and purification. DPAGT1 was expressed in suspended Expi293 cells for 36 h. The cells were lysed by drawing through a 26 g needle (10 times) and membrane protein was extracted using buffer containing 1% decyl f3-D-maltopyranoside detergent. DPAGT1 was purified using HA-agarose resin and a superdex 200 size exclusion column.

PD002 [3] = experiment: Kinetic proliferation assay (IncuCyte); assay type: cell-based
Experimental: Kinetic Proliferation Assay. To study the effect of treatment with DPAGT1 inhibitors on the growth and proliferation of cells, a fixed number of cells (2×10^4) were plated in multiple wells of a 96 well plate, incubated for 24 h to let cells settle down. Then, CPPB (5) was added (0-50 μM). Images were obtained every 4 h using an IncuCyte Live-Cell Imaging System (Essen BioScience, Ann Arbor, MI). After 72 h, cell proliferation was quantified using the metric phase object confluence (POC), a measurement of the area of the field of view that is covered by cells, which is calculated by the integrated software.

Snail [4] = experiment: Immunofluorescence assay using an anti-Snail antibody; assay type: cell-based
E-cadherin = experiment: Immunofluorescent staining of E-cadherin; assay type: cell-based
AglH (M. jannaschii) = biological target: T2, AglH (M. jannaschii) (Methanocaldococcus jannaschii, UniProt Q58513); experiment: AglH assay; conditions: read-out: IC50 AglH (M. jannaschii)
T2 sequence (Q58513 1-301): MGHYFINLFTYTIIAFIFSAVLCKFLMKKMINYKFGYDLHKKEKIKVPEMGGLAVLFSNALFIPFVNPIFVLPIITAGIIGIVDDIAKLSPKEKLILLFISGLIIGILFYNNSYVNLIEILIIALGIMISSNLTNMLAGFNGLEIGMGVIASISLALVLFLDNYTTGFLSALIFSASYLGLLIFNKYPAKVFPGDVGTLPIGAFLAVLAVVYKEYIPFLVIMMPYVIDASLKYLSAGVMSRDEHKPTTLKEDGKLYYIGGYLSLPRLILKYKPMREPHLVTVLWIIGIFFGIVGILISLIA

DPAGT1 gene = experiment: RT-qPCR analyses of DPAGT1 expression level; assay type: cell-based; conditions: PD002

(2S,3S,4S)-2-((1R)-2-Amino-1-((2S,5R)-5-(2,4-dioxo-3,4-dihydropyrimidin-1(2H)-yl)-4-hydroxy-3-methoxytetrahydrofuran-2-yl)-2-oxoethoxy)-3,4-dihydroxy-N-(4-(4-(4-(trifluoromethoxy)-phenyl)piperidin-1-yl)benzyl)-3,4-dihydro-2H-pyran-6-carboxamide [CPPB]
viability of all pancreatic cancers tested (MTT) (cell lines in Table 2; 20 μM concentration): remained viable | cytotoxicity against a series of cancer and healthy cell lines (cell lines in Table 2; at 10 μM or higher concentrations): not cytotoxic | cell migration of PD002 via transwell chamber (PD002 [1]): inhibited on a higher level | Snail expression in SiHa (Snail [2]): inhibited by treatment of CPPB in a concentration dependent manner | DPAGT1 inhibitory activity (in words) (DPAGT1 (Human)): high nM range DPAGT1 inhibitors | IC50 (DPAGT1 (Human)): 0.2 µM | DPAGT1 inhibitory strength relative to I-CPPB (DPAGT1 (Human); CPPB vs. I-CPPB): three times stronger | DPAGT1 inhibitory activity relative to tunicamycin (DPAGT1 (Human); CPPB vs. tunicamycin): ~7.5 times | phase area confluence of PD002 culture after 72 h (PD002 [3]; 50 μM, same as at time 0 h, control (PBS) ca. 70%): 10-13% | cell proliferation inhibited at time 72 h (PD002 [3]; 0.2-20 μM): ca. 20% | Snail expression in pancreatic cancer cells (Snail [4]; PANC-1, AsPC-1, Capan-2, PD002): decreased by the treatment with CPPB in a concentration dependent manner; also recorded: decreased the Snail expression | Snail expression level in HCT-116 (Snail [4]; between 0.05 and 2.0 μM): not noticeably changed | E-cadherin expression level in PD002 (E-cadherin; 0.05-0.2 μM): not noticeably changed | E-cadherin expression level in Panc-1 (E-cadherin; 0.05-0.2 μM): slightly increased | E-cadherin expression levels of PD002, PANC-1, and HCT-116 (E-cadherin; 0.05-2.0 μM): not changed significantly | IC50 (AglH (M. jannaschii)): 0.15 µM | DPAGT1 gene expression (DPAGT1 gene): without significantly decreasing
